Experimental data from patent publication US11883526B2 (priority 2019, dated 2024).

Test system: patients with treatment-resistant depression (TRD)
Assay: Adverse events (Example 7)
Type: in vivo, human
Conditions: for Dissociation, number of participants / Dissociative disorder, % of participants / Dissociative disorder, number of participants / Dizziness, % of participants / Dizziness, number of participants / Dysgeusia, % of participants / Dysgeusia, number of participants / Feeling abnormal, % of participants / Feeling abnormal, number of participants / Headache, % of participants / Headache, number of participants / Hypersomnia, % of participants / Hypersomnia, number of participants / Hypertension, number of participants / Hypoesthesia oral, % of participants / Hypoesthesia oral, number of participants / Insomnia, number of participants / Nasal discomfort, number of participants / Nausea, % of participants / Nausea, number of participants / Oropharyngeal pain, number of participants / Polyuria, number of participants / Sedation, % of participants / Sedation, number of participants / Throat irritation, % of participants / Throat irritation, number of participants / Total with events, % of participants / Total with events, number of participants / Tunnel vision, number of participants / Vertigo, % of participants / Vertigo, number of participants / Vision blurred, number of participants / Dissociation, % of participants / Hypertension, % of participants / Insomnia, % of participants / Nasal discomfort, % of participants / Oropharyngeal pain, % of participants / Polyuria, % of participants / Tunnel vision, % of participants / Vision blurred, % of participants: double-blind
Procedure: Adverse events were monitored throughout the study. Other safety assessments (i.e., laboratory tests, vital signs, physical examination) were performed at pre-specified time points. Vital signs, the Clinician Administered Dissociative States Scale (CADSS; Bremner, “Measurement of dissociative states with the clinician-administered dissociative states scale (CADSS)”, J. Traumatic Stress, 1998, 11(1):125-136), and the 4-item positive symptom subscale from the Brief Psychiatric Rating Scale (BPRS; Overall, “The Brief Psychiatric Rating Scale. Psychological Reports”, 1962, 10:799-812) were assessed pre-dose, at 40 minutes, and 2 hours post-dose.
Safety data were analyzed in Period 1, Period 2, double-blind, and open-label data sets, for all subjects receiving at least 1 dose of study medication.

SMILES: CN[C@]1(c2ccccc2Cl)CCCCC1=O [esketamine, (S)-2-(2-chlorophenyl)-2-(methylamino)cyclohexanone]
- participants with adverse events leading to discontinuation of study drug (double-blind phase): 5%
- Dissociation, number of participants (28 mg): 0
- Dissociative disorder, % of participants (28 mg): (11) %
- Dissociative disorder, number of participants (28 mg): 2
- Dizziness, % of participants (28 mg): (21) %
- Dizziness, number of participants (28 mg): 4
- Dysgeusia, % of participants (28 mg): (11) %
- Dysgeusia, number of participants (28 mg): 2
- Feeling abnormal, % of participants (28 mg): (11) %
- Feeling abnormal, number of participants (28 mg): 2
- Headache, % of participants (28 mg): (32) %
- Headache, number of participants (28 mg): 6
- Hypersomnia, % of participants (28 mg): (11) %
- Hypersomnia, number of participants (28 mg): 2
- Hypertension, number of participants (28 mg): 0
- Hypoesthesia oral, % of participants (28 mg): (5) %
- Hypoesthesia oral, number of participants (28 mg): 1
- Insomnia, number of participants (28 mg): 0
- Nasal discomfort, number of participants (28 mg): 0
- Nausea, % of participants (28 mg): (11) %
- Nausea, number of participants (28 mg): 2
- Oropharyngeal pain, number of participants (28 mg): 0
- Polyuria, number of participants (28 mg): 0
- Sedation, % of participants (28 mg): (5) %
- Sedation, number of participants (28 mg): 1
- Throat irritation, % of participants (28 mg): (5) %
- Throat irritation, number of participants (28 mg): 1
- Total with events, % of participants (28 mg): (58) %
- Total with events, number of participants (28 mg): 11
- Tunnel vision, number of participants (28 mg): 0
- Vertigo, % of participants (28 mg): (11) %
- Vertigo, number of participants (28 mg): 2
- Vision blurred, number of participants (28 mg): 0
- Dissociation, % of participants (56 mg): (35) %
- Dissociation, number of participants (56 mg): 7
- Dissociative disorder, % of participants (56 mg): (5) %
- Dissociative disorder, number of participants (56 mg): 1
- Dizziness, % of participants (56 mg): (40) %
- Dizziness, number of participants (56 mg): 8
- Dysgeusia, % of participants (56 mg): (15) %
- Dysgeusia, number of participants (56 mg): 3
- Feeling abnormal, % of participants (56 mg): (5) %
- Feeling abnormal, number of participants (56 mg): 1
- Headache, % of participants (56 mg): (15) %
- Headache, number of participants (56 mg): 3
- Hypersomnia, number of participants (56 mg): 0
- Hypertension, % of participants (56 mg): (10) %
- Hypertension, number of participants (56 mg): 2
- Hypoesthesia oral, % of participants (56 mg): (20) %
- Hypoesthesia oral, number of participants (56 mg): 4
- Insomnia, % of participants (56 mg): (10) %
- Insomnia, number of participants (56 mg): 2
- Nasal discomfort, % of participants (56 mg): (10) %
- Nasal discomfort, number of participants (56 mg): 2
- Nausea, % of participants (56 mg): (20) %
- Nausea, number of participants (56 mg): 4
- Oropharyngeal pain, % of participants (56 mg): (5) %
- Oropharyngeal pain, number of participants (56 mg): 1
- Polyuria, % of participants (56 mg): (10) %
- Polyuria, number of participants (56 mg): 2
- Sedation, % of participants (56 mg): (10) %
- Sedation, number of participants (56 mg): 2
- Throat irritation, number of participants (56 mg): 0
- Total with events, % of participants (56 mg): (80) %
- Total with events, number of participants (56 mg): 16
- Tunnel vision, number of participants (56 mg): 0
- Vertigo, % of participants (56 mg): (5) %
- Vertigo, number of participants (56 mg): 1
- Vision blurred, number of participants (56 mg): 0
- Dissociation, % of participants (84 mg): (24) %
- Dissociation, number of participants (84 mg): 4
- Dissociative disorder, % of participants (84 mg): (24) %
- Dissociative disorder, number of participants (84 mg): 4
- Dizziness, % of participants (84 mg): (47) %
- Dizziness, number of participants (84 mg): 8
- Dysgeusia, % of participants (84 mg): (29) %
- Dysgeusia, number of participants (84 mg): 5
- Feeling abnormal, % of participants (84 mg): (6) %
- Feeling abnormal, number of participants (84 mg): 1
- Headache, % of participants (84 mg): (18) %
- Headache, number of participants (84 mg): 3
- Hypersomnia, number of participants (84 mg): 0
- Hypertension, % of participants (84 mg): (6) %
- Hypertension, number of participants (84 mg): 1
- Hypoesthesia oral, % of participants (84 mg): (12) %
- Hypoesthesia oral, number of participants (84 mg): 2
- Insomnia, number of participants (84 mg): 0
- Nasal discomfort, % of participants (84 mg): (6) %
- Nasal discomfort, number of participants (84 mg): 1
- Nausea, % of participants (84 mg): (24) %
- Nausea, number of participants (84 mg): 4
- Oropharyngeal pain, % of participants (84 mg): (12) %
- Oropharyngeal pain, number of participants (84 mg): 2
- Polyuria, number of participants (84 mg): 0
- Sedation, % of participants (84 mg): (6) %
- Sedation, number of participants (84 mg): 1
- Throat irritation, % of participants (84 mg): (12) %
- Throat irritation, number of participants (84 mg): 2
- Total with events, % of participants (84 mg): (88) %
- Total with events, number of participants (84 mg): 15
- Tunnel vision, % of participants (84 mg): (12) %
- Tunnel vision, number of participants (84 mg): 2
- Vertigo, % of participants (84 mg): (6) %
- Vertigo, number of participants (84 mg): 1
- Vision blurred, % of participants (84 mg): (12) %
- Vision blurred, number of participants (84 mg): 2
- Dissociation, % of participants (esketamine Total): (20) %
- Dissociation, number of participants (esketamine Total): 11
- Dissociative disorder, % of participants (esketamine Total): (13) %
- Dissociative disorder, number of participants (esketamine Total): 7
- Dizziness, % of participants (esketamine Total): (36) %
- Dizziness, number of participants (esketamine Total): 20
- Dysgeusia, % of participants (esketamine Total): (18) %
- Dysgeusia, number of participants (esketamine Total): 10
- Feeling abnormal, % of participants (esketamine Total): (7) %
- Feeling abnormal, number of participants (esketamine Total): 4
- Headache, % of participants (esketamine Total): (21) %
- Headache, number of participants (esketamine Total): 12
- Hypersomnia, % of participants (esketamine Total): (4) %
- Hypersomnia, number of participants (esketamine Total): 2
- Hypertension, % of participants (esketamine Total): (5) %
- Hypertension, number of participants (esketamine Total): 3
- Hypoesthesia oral, % of participants (esketamine Total): (13) %
- Hypoesthesia oral, number of participants (esketamine Total): 7
- Insomnia, % of participants (esketamine Total): (4) %
- Insomnia, number of participants (esketamine Total): 2
- Nasal discomfort, % of participants (esketamine Total): (5) %
- Nasal discomfort, number of participants (esketamine Total): 3
- Nausea, % of participants (esketamine Total): (18) %
- Nausea, number of participants (esketamine Total): 10
- Oropharyngeal pain, % of participants (esketamine Total): (5) %
- Oropharyngeal pain, number of participants (esketamine Total): 3
- Polyuria, % of participants (esketamine Total): (4) %
- Polyuria, number of participants (esketamine Total): 2
- Sedation, % of participants (esketamine Total): (7) %
- Sedation, number of participants (esketamine Total): 4
- Throat irritation, % of participants (esketamine Total): (5) %
- Throat irritation, number of participants (esketamine Total): 3
- Total with events, % of participants (esketamine Total): (75) %
- Total with events, number of participants (esketamine Total): 42
- Tunnel vision, % of participants (esketamine Total): (4) %
- Tunnel vision, number of participants (esketamine Total): 2
- Vertigo, % of participants (esketamine Total): (7) %
- Vertigo, number of participants (esketamine Total): 4
- Vision blurred, % of participants (esketamine Total): (4) %
- Vision blurred, number of participants (esketamine Total): 2
- deaths (in vivo): No death
- adverse event incidence: dizziness (open-label phase): 38.6%
- adverse event incidence: dysgeusia (open-label phase): 22.8%
- adverse event incidence: headache (open-label phase): 14.0%
- adverse event incidence: nausea (open-label phase): 15.8%
- adverse event incidence: sedation (open-label phase): 10.5%
- participants reporting transient dissociative symptoms (open-label phase): 24.6%
- participants with adverse events leading to discontinuation of study drug (open-label phase): 2%
